Reference: patent US9999222B2, “Herbicidal combination comprising azines” (BASF SE, priority 2014, dated 2018)
Values joined by “and” are separate entries in the source; they are usually repeats but may differ in a detail not shown here. Identical values can stand only once.

Tests used:
POLCO [1] = test: Greenhouse test, post-emergence treatment; format: in vivo, Polygonum convolvulus; settings: application rate 1.0 kg/ha, scale 0 to 100
From the text: (§1) The culture containers used were plastic flowerpots containing loamy sand with approximately 3.0% of humus as the substrate. The seeds of the test plants were sown separately for each species.
(§2) For the post-emergence treatment, the test plants were first grown to a height of […], depending on the plant habit, and only then treated with the active ingredients which had been suspended or emulsified in water. For this purpose, the test plants were either sown directly and grown in the same containers, or they were first grown separately as seedlings and transplanted into the test containers a few days prior to treatment.
(§3) Depending on the species, the plants were kept at 10-25° C. or 20-35° C., respectively.
(§4) The test period extended over 2 to 4 weeks. During this time, the plants were tended, and their response to the individual treatments was evaluated.
(§5) Evaluation was carried out using a scale from 0 to 100. 100 means no emergence of the plants, or complete destruction of at least the aerial moieties, and 0 means no damage, or normal course of growth. A moderate herbicidal activity is given at values of at least 60, a good herbicidal activity is given at values of at least 70, and a very good herbicidal activity is given at values of at least 85.

AMARE [2] = test: Greenhouse test, post-emergence treatment; format: in vivo, Amaranthus retroflexus; settings: application rate 1.0 kg/ha, scale 0 to 100
From the text: as §1, §2, §3, §4, §5

AMARE [3] = test: Greenhouse test, pre-emergence treatment; format: in vivo, Amaranthus retroflexus; settings: application rate 0.25 kg/ha, scale 0 to 100
From the text: as §1
(§6) For the pre-emergence treatment, the active ingredients, which had been suspended or emulsified in water, were applied directly after sowing by means of finely distributing nozzles. The containers were irrigated gently to promote germination and growth and subsequently covered with transparent plastic hoods until the plants had rooted. This cover caused uniform germination of the test plants, unless this had been impaired by the active ingredients.
as §3, §4
Evaluation was carried out using a scale from 0 to 100. […]
In the examples below, using the method of S. R. Colby (1967) “Calculating synergistic and antagonistic responses of herbicide combinations”, Weeds 15, p. 22ff., the value E, which is expected if the activity of the individual active compounds is only additive, was calculated. […]
(§7) If the value found experimentally is higher than the value E calculated according to Colby, a synergistic effect is present.

ABUTH = test: Greenhouse test, pre-emergence treatment; format: in vivo, Abutilon theophrasti
Summary of the method: (§8)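 Seeds were sown in loamy sand with approximately 3.0% humus, then sprayed at once with actives suspended or emulsified in water. Pots were watered, hooded until rooting, held at 10-25° C. or 20-35° C. by species for 2 to 4 weeks, and scored 0 (no damage) to 100 (no emergence/complete destruction).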

SETFA = test: Greenhouse test, pre-emergence treatment; format: in vivo, Setaria faberi; settings: SETFA, application rate 0.25 kg/ha, scale 0 to 100
From the text: as §1, §6, §3, §4, §5
(§9) The respective stated components a and b, and if appropriate, c were formulated as a 10% by weight strength emulsion concentrate and, with addition of the amount of solvent system, introduced into the spray liquor used for applying the active compound.
(§10) In the examples, the solvent used was water.
(§11) In the examples below, using the method of S. R. Colby (1967) “Calculating synergistic and antagonistic responses of herbicide combinations”, Weeds 15, p. 22ff., the value E, which is expected if the activity of the individual active compounds is only additive, was calculated. E=X+Y−(X·Y/100) where • X=percent activity using active compound a at an application rate A; • Y=percent activity using active compound b at an application rate B; • E=expected activity (in %) by a+b at application rates A+B.
as §7

ECHCG = test: Greenhouse test, pre-emergence treatment; format: in vivo, Echinocloa crus-galli
From the text: as §1, §6, §3, §4, §5, §9, §10, §11, §7

KCHSC = test: Greenhouse test, pre-emergence treatment; format: in vivo, Kochia scoparia; settings: pre-emergence
Summary of the method: as §8

ALOMY = test: Greenhouse test, pre-emergence treatment; format: in vivo, Alopecurus myosuroides; settings: pre-emergence
Summary of the method: as §8

ELEIN = test: Greenhouse test, pre-emergence treatment; format: in vivo, Eleusine indica
From the text: as §1, §6, §3, §4, §5, §9, §10, §11, §7

BRADC = test: Greenhouse test, pre-emergence treatment; format: in vivo, Brachiaria decumbens; settings: pre-emergence
From the text: as §1, §6, §3, §4, §5, §9, §10, §11, §7

DIGSA = test: Greenhouse test, pre-emergence treatment; format: in vivo
LOLMU = test: Greenhouse test, pre-emergence treatment; format: in vivo, Lolium multiflorum; settings: pre-emergence
From the text: as §1, §6, §3, §4, §5, §9, §10, §11, §7

POLCO [4] = test: Greenhouse test, pre-emergence treatment; format: in vivo, Polygonum convolvulus; settings: pre-emergence; for observed % activity 20 DAT: POLCO
Summary of the method: as §8

SETVI = test: Greenhouse test, pre-emergence treatment; format: in vivo, Setaria viridis
From the text: as §1, §6, §3, §4, §5, §9, §10, §11, §7

PHACA = test: Greenhouse test, pre-emergence treatment; format: in vivo, Phalaris canariensis; settings: pre-emergence
From the text: as §1, §6, §3, §4, §5, §9, §10, §11, §7

AVEFA = test: Greenhouse test, pre-emergence treatment; format: in vivo, Avena fatua; settings: pre-emergence
From the text: as §1, §6, §3, §4, §5, §9, §10, §11, §7

GALAP = test: Greenhouse test, pre-emergence treatment; format: in vivo, Galium aparine; settings: Galium aparine, pre-emergence, 480 h
Summary of the method: as §8

SIDRH = test: Greenhouse test, pre-emergence treatment; format: in vivo, Sida rhombifolia; settings: Sida rhombifolia, pre-emergence, 480 h, 40 g ai/ha, 20 DAT; read-out: observed % activity
Summary of the method: as §8

CENCY = test: Greenhouse test, pre-emergence treatment; format: in vivo; settings: 480 h, read-out: observed % activity 20 DAT
ANTAR = test: Greenhouse test, pre-emergence treatment; format: in vivo; settings: Anthemis arvensis, 480 h, 40 g ai/ha, 20 DAT, read-out: observed % activity
Summary of the method: as §8

GERPU = test: Greenhouse test, pre-emergence treatment; format: in vivo, Geranium pusillum; settings: Geranium pusillum, pre-emergence, 480 h
Summary of the method: as §8

COMBE = test: Greenhouse test, pre-emergence treatment; format: in vivo, Commelina benghalensis; settings: Commelina benghalensis, pre-emergence, 480 h
Summary of the method: as §8

EPHHL = test: Greenhouse test, pre-emergence treatment; format: in vivo, Euphorbia heterophylla; settings: Euphorbia heterophylla, pre-emergence, 480 h
Summary of the method: as §8

IPOHE = test: Greenhouse test, pre-emergence treatment; format: in vivo, Ipomoea hederacea; settings: Ipomoea hederacea, 480 h, 60 g ai/ha, read-out: observed % activity 20 DAT
Summary of the method: as §8

[5] = 80 g ai/ha, 20 DAT, read-out: observed % activity
[6] = 60 g ai/ha, read-out: observed % activity 20 DAT
[7] = 40 g ai/ha, 20 DAT, read-out: observed % activity

Nc1nc(CC2CC2)nc(Nc2c(F)cc(F)cc2F)n1 [Example 4, 6-(cyclopropylmethyl)-N4-(2,4,6-trifluorophenyl)-1,3,5-triazine-2,4-diamine]
herbicidal activity (POLCO [1]): good herbicidal activity (a good herbicidal activity is given at values of at least 70) | herbicidal activity (AMARE [2]): very good herbicidal activity (a very good herbicidal activity is given at values of at least 85)

CCCC(C)c1nc(N)nc(Nc2c(F)c(F)cc(F)c2F)n1 (stereo not drawn) [Example 6, 6-(1-methylbutyl)-N4-(2,3,5,6-tetrafluorophenyl)-1,3,5-triazine-2,4-diamine]
herbicidal activity (AMARE [3]): very good herbicidal activity (a very good herbicidal activity is given at values of at least 85) | herbicidal activity (ABUTH; ABUTH, application rate 0.25 kg/ha, scale 0 to 100): very good herbicidal activity (a very good herbicidal activity is given at values of at least 85) | herbicidal activity (SETFA): very good herbicidal activity (a very good herbicidal activity is given at values of at least 85)

CC(c1nc(N)nc(Nc2c(F)c(F)cc(F)c2F)n1)C(C)(C)C (stereo not drawn) [Example 7, N4-(2,3,5,6-tetrafluorophenyl)-6-(1,2,2-trimethylpropyl)-1,3,5-triazine-2,4-diamine]
herbicidal activity (AMARE [3]): very good herbicidal activity (a very good herbicidal activity is given at values of at least 85) | herbicidal activity (ECHCG; ECHCG, application rate 0.25 kg/ha, scale 0 to 100): very good herbicidal activity (a very good herbicidal activity is given at values of at least 85) | herbicidal activity (SETFA): very good herbicidal activity (a very good herbicidal activity is given at values of at least 85)

C#CCN1C(=O)C(F)(F)Oc2cc(F)c(-n3c(=O)n(C)c(=S)n(C)c3=O)cc21 [PPO, trifludimoxazin]
observed % activity 20 DAT (KCHSC; KCHSC, use rate 12.5 g ai/ha, 20 DAT): 25% | observed % activity 20 DAT (KCHSC; use rate 12.5 g ai/ha): 25% | observed % activity 20 DAT (KCHSC; use rate 25 g ai/ha): 85% | observed % activity 20 DAT (ALOMY; 25 g ai/ha): 60% | observed % activity 20 DAT (ELEIN; 18 g ai/ha): 55% | observed % activity 20 DAT (ELEIN; 36 g ai/ha): 90% | observed % activity 20 DAT (BRADC; 25 g ai/ha): 65% | observed % activity 20 DAT (BRADC; 36 g ai/ha): 25% | observed % activity 20 DAT (DIGSA; 18 g ai/ha): 85% | observed % activity 20 DAT (DIGSA; 36 g ai/ha): 90% | observed % activity 20 DAT (LOLMU; 25 g ai/ha): 0% | observed % activity 20 DAT (LOLMU; 36 g ai/ha): 35% | observed % activity 20 DAT (LOLMU; 50 g ai/ha): 55% | observed % activity 20 DAT (ECHCG; 18 g ai/ha): 0% | observed % activity 20 DAT (POLCO [4]; use rate 12.5 g ai/ha, 20 DAT): 0% | observed % activity 20 DAT (POLCO [4]; use rate 25 g ai/ha, 20 DAT): 0% | observed % activity 20 DAT (SETVI; 18 g ai/ha): 95% | observed % activity 20 DAT (SETVI; 36 g ai/ha): 90% | observed % activity 20 DAT (PHACA; 18 g ai/ha): 45% | observed % activity 20 DAT (PHACA; 25 g ai/ha): 35% | observed % activity 20 DAT (PHACA; 36 g ai/ha, listed as BAS 850 (PPO)): 70% and 65% | observed % activity 20 DAT (PHACA; use rate 12.5 g ai/ha): 85% | observed % activity 20 DAT (AVEFA; 25 g ai/ha): 0% | observed % activity 20 DAT (AVEFA; 36 g ai/ha): 15% | observed % activity 20 DAT (AVEFA; 50 g ai/ha): 0%

CC(C)N(C(=O)SCC(Cl)=C(Cl)Cl)C(C)C [Tri-allate, triallate]
inhibition at 400 g/ha (ALOMY; Alopecurus myosuroides, 480 h, 400 g ai/ha, read-out: observed % activity 20 DAT): 5% | inhibition at 400 g/ha (ELEIN; Eleusine indica, 480 h, 400 g ai/ha, read-out: observed % activity 20 DAT): 0% | inhibition at 200 g/ha (BRADC; Urochloa decumbens, 480 h, 200 g ai/ha, read-out: observed % activity 20 DAT): 0% | inhibition at 400 g/ha (DIGSA; Digitaria sanguinalis, 480 h, 400 g ai/ha, read-out: observed % activity 20 DAT): 0% | inhibition at 200 g/ha (PHACA; Phalaris canariensis, 480 h, 200 g ai/ha, read-out: observed % activity 20 DAT): 0% | inhibition at 400 g/ha (PHACA; Phalaris canariensis, 480 h, 400 g ai/ha, read-out: observed % activity 20 DAT): 0% | inhibition at 200 g/ha (AVEFA; Avena fatua, 480 h, 200 g ai/ha, read-out: observed % activity 20 DAT): 45% | inhibition at 400 g/ha (AVEFA; Avena fatua, 480 h, 400 g ai/ha, read-out: observed % activity 20 DAT): 75%

O=C(Nc1ccc(F)cc1F)c1cccnc1Oc1cccc(C(F)(F)F)c1 [diflufenican]
inhibition at 80 g/ha (GALAP; [5]): 40% | inhibition at 30 g/ha (GALAP; 30 g ai/ha, read-out: observed % activity 20 DAT): 20% | inhibition at 60 g/ha (GALAP; [6]): 25% | inhibition at 60 g/ha (KCHSC; Bassia scoparia, 480 h, 60 g ai/ha, read-out: observed % activity 20 DAT): 80% | inhibition at 40 g/ha (SIDRH): 0% | inhibition at 30 g/ha (CENCY; 30 g ai/ha): 0% | inhibition at 60 g/ha (CENCY; 60 g ai/ha): 0% | inhibition at 40 g/ha (ANTAR): 85% | inhibition at 40 g/ha (GERPU; [7]): 40% | inhibition at 80 g/ha (GERPU; [5]): 50% | inhibition at 60 g/ha (GERPU; [6]): 60% | inhibition at 30 g/ha (ABUTH; Abutilon theophrasti, 480 h, 30 g ai/ha, read-out: observed % activity 20 DAT): 0% | inhibition at 40 g/ha (ABUTH; Abutilon theophrasti, 480 h, 40 g ai/ha, 20 DAT, read-out: observed % activity): 25% | inhibition at 60 g/ha (ABUTH; Abutilon theophrasti, 480 h, 60 g ai/ha, read-out: observed % activity 20 DAT): 0% | inhibition at 80 g/ha (ABUTH; Abutilon theophrasti, 480 h, 80 g ai/ha, 20 DAT, read-out: observed % activity): 50% | inhibition at 40 g/ha (POLCO [4]; Fallopia convolvulus, 480 h, 40 g ai/ha, 20 DAT, read-out: observed % activity): 20% | inhibition at 60 g/ha (POLCO [4]; Fallopia convolvulus, 480 h, 60 g ai/ha, read-out: observed % activity 20 DAT): 60% | inhibition at 80 g/ha (COMBE; [5]): 55% | inhibition at 60 g/ha (COMBE; [6]): 35% | inhibition at 40 g/ha (EPHHL; [7]): 20% | inhibition at 60 g/ha (EPHHL; [6]): 15% | inhibition at 60 g/ha (IPOHE): 15%
